From patent US11110084B2, “Opioid formulations” (Camurus AB, priority 2012, dated 2021)

Conditions: disodium fluorescein 5 mg/g, 0.1 g in 2 ml PBS

## O=C([O-])c1ccccc1-c1c2ccc(=O)cc-2oc2cc([O-])ccc12.[Na+].[Na+] [Fluo, disodium fluorescein]
  % release (37° C.) 72 h: about 0.4%
